Here are results for 13 molecules from patent publication US10385103B2, “Cell-permeable (ICP)-SOCS3 recombinant protein and uses thereof” (CELLIVERY THERAPEUTICS, INC., priority 2014, dated 2019).

The test system of data set [1] is RAW 264.7 cells. Description: Quantitative cell-permeability of FITC-labeled aMTD- or rPeptide-fused CRA recombinant proteins (flow cytometry). The conditions noted are these: for Relative Ratio to aMTD AVE: cell-permeability of rPeptide-fused CRA recombinant protein relative to average of 240 aMTDs. In kind it is cell-based. In outline:
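Uptake of fluorescently labeled, peptide-fused cargo proteins was quantified by flow cytometry (Guava, Millipore) and analyzed in FlowJo software. RAW 264.7 cells received 10 μM FITC-labeled protein for 1 hour at 37° C., were rinsed three times with cold PBS, and were trypsinized with 0.25% tripsin/EDTA for 20 minutes at 37° C. to remove bound protein before measurement. Permeability was expressed relative to reference proteins.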
On the technique in general: A flow cytometer gives signals particle by particle.

Data set [2] relates to RAW 264.7 cells. Description: Cell-permeability of FITC-labeled SOCS3 recombinant proteins (flow cytometry). It counts as cell-based. To be noted: 10 μM FITC-labeled protein, 1 hr, 37° C. The procedure: To examine cell-permeability of SOCS3 recombinant protein, SOCS3 recombinant proteins were conjugated to 5/6-fluorescein isothiocyanate (FITC). RAW 264.7 (KCLB, Seoul, South Korea) (FIG. 20) or NIH3T3 cells (KCLB, Seoul, South Korea) (FIG. 21) were treated with 10 μM FITC-labeled SOCS3 recombinant proteins and cultivated for 1 hr at 37° C.
In this regard, RAW 264.7 cells were cultured in a DMEM medium containing 10% fetal bovine serum (FBS, Hyclone, USA) and […] of 1% penicillin/streptomycin (Hyclone, USA).
After cultivation, the cells were washed three times with ice-cold PBS (Phosphate-buffered saline, Hyclone, USA) and treated with proteinase K (10 μg/mL, SIGMA, USA) to remove surface-bound proteins, and internalized proteins were measured by flow cytometry (FlowJo cytometric analysis software, Guava, Millipore, Darmstadt, Germany). Untreated cells (gray) and equimolar concentration of unconjugated FITC (FITC only, green)-treated cells were served as control (FIG. 20). Each of NIH3T3 cells was incubated for 1 hour at 37° C. with 10 μM FITC-labeled SOCS3 protein. For nuclear staining, a mixture of […] Mounting Medium (Vector laboratories, Burlingame, Calif.) and DAPI (4′,6-diamidino-2-phenylindole) was added to NIH3T3 cells, and visualized using a confocal laser microscope (LSM700, Zeiss, Germany) (FIG. 21).

Data set [3] is described as follows: Solubility/yield of SOCS3 recombinant proteins expressed and purified from E. coli. It counts as physicochemical. The procedure:
Thereafter, the recombinant protein gene-introduced E. coli was inoculated in 7 ml of LB medium, and then incubated at 37° C. overnight. The E. coli was inoculated in 700 ml of LB medium and incubated at 37° C. until OD600 reached 0.6. To this culture medium, 0.6 mM of isopropyl-β-D-thiogalactoside (IPTG, Gen Depot, USA) was added as a protein expression inducer, followed by further incubation at 37° C. for 3 hours. This culture medium was centrifuged at 4° C. and 8,000 rpm for 10 minutes and a supernatant was discarded to recover a cell pellet. The cell pellet thus recovered was suspended in a lysis buffer (100 mM NaH2PO4, 10 mM Tris-HCl, 8 M Urea, pH 8.0), and cells were disrupted by sonication (on/off time: 30 sec/30 sec, on time 2 hours, amplify 40%), and centrifuged at 15,000 rpm for 30 min to obtain a soluble fraction and an insoluble fraction.
After purification, the proteins were put in a SnakeSkin Dialysis Tubing bag (pore size: 10000 mw, Thermo scientific, USA) and then they were dialyzed by physiological buffer (DMEM). The strain lysate where protein expression was not induced, the strain lysate where protein expression was induced by addition of IPTG, and purified proteins were loaded on SDS-PAGE to analyze protein expression characteristics and expression levels (FIGS. 19 and 20).
Solubility of aMTD/SD-fused SOCS3 proteins was scored on a 5 point scale compared with that of SOCS3 proteins lacking the solubilization domain.

In data set [4] the test system is AGS cells. In words: Induction of apoptosis by Annexin V/7-AAD staining in gastric carcinoma cells. In kind it is cell-based. To be noted: 10 uM, 14 hours. As to the method: AGS cells (gastric carcinoma cell line) (American Type Culture Collection; ATCC) were seeded in a 12-well plate at a density of 1×10^5 cells/well, and then treated with 10 uM of aMTD/SD-fused SOCS3 for 14 hours. Cancer cell death was analyzed by Annexin V analysis. Annexin V/7-Aminoactinomycin D (7-AAD) staining was performed using flow cytometry according to the manufacturer's guidelines (BD Pharmingen, San Diego, Calif., USA). Briefly, cells were washed three times with ice-cold PBS. The cells were then resuspended in 100 μl of binding buffer and incubated with 1 μl of 7-AAD and 1 μl of annexin V-PE for 30 min in the dark at 37° C. Flow cytometric analysis was immediately performed using a guava easyCyte™ 8 Instrument (Merck Millipore, Darmstadt, Germany).

Where [5] appears, read: cell-permeability of aMTD-fused CRA recombinant protein relative to negative control (A: rP38).
The mark [6] stands for this setting: cell-permeability of aMTD-fused CRA recombinant protein relative to reference CPP (B: MTM12).
Setting [7] is: cell-permeability of aMTD-fused CRA recombinant protein relative to reference CPP (C: MTD85).
Setting [8] is: relative cell-permeability of aMTD vs reference A (not defined).
The mark [9] stands for this setting: 10 μM FITC-labeled, 1 hour, 37° C., RAW 264.7 cells.

Entries after “also recorded” stand apart in the source; their conditions may differ.

As to “900 (ALVAVIAPVVAP; Amino acid Sequence of aMTD900) [compound 900]”, the “Relative Ratio (Fold) A” value in data set [1] (setting [5]) was 34.3 Fold. In addition, the “Relative Ratio (Fold) B” value in data set [1] (setting [6]) was determined as 22.9 Fold. For the same molecule, the “Relative Ratio (Fold) C” value in data set [1] (setting [7]) is listed as 11.6 Fold.
For “901 (ALVAVLPAVAVP; Amino acid Sequence of aMTD901) [compound 901]”, in that order: 7.7 Fold, 5.1 Fold and 2.6 Fold.
As for “902 (ALVAPLLAVAVP; Amino acid Sequence of aMTD902) [compound 902]”, the “Relative Ratio (Fold) A” value in data set [1] (setting [5]) is 7.6 Fold. In data set [1] (setting [6]), the “Relative Ratio (Fold) B” value was 5.1 Fold. In addition, the “Relative Ratio (Fold) C” value in data set [1] (setting [7]) was determined as 2.6 Fold.
Regarding “904 (AVLAVVAPVVAP; Amino acid Sequence of aMTD904) [compound 904]”, the figures for the “Relative Ratio (Fold) A” value in data set [1] (setting [5]) and in data set [1] (setting [8]) were 106.7 Fold and 105.7 Fold, respectively. In addition, the “Relative Ratio (Fold) B” value in data set [1] (setting [6]) was determined as 70.8 Fold. Moreover, in data set [1] (setting [7]), the “Relative Ratio (Fold) C” value is reported as 35.8 Fold.
With “905 (AVIAVAPLVVAP; Amino acid Sequence of aMTD905) [compound 905]”, the “Relative Ratio (Fold) A” value in data set [1] (setting [5]) came to 44.0 Fold. Moreover, in data set [1] (setting [6]), the “Relative Ratio (Fold) B” value was 29.5 Fold. Also, in data set [1] (setting [7]), the “Relative Ratio (Fold) C” value amounted to 14.9 Fold.
As to “906 (AVIALAPVVVAP; Amino acid Sequence of aMTD906) [compound 906]”, the “Relative Ratio (Fold) A” value in data set [1] (cell-permeability relative to negative control rP38 (A type), aMTD-fused CRA recombinant protein, 10 μM FITC-labeled, 1 hour, 37° C., RAW 264.7 cells) is given as 6.8 Fold. Further, in data set [1] (cell-permeability relative to reference CPP MTD85 (C type), aMTD-fused CRA recombinant protein, 10 μM FITC-labeled, 1 hour, 37° C., RAW 264.7 cells), the “Relative Ratio (Fold) C” value is recorded as 2.3 Fold. In addition, the “Relative Ratio (Fold) B” value in data set [1] (cell-permeability relative to reference CPP MTM12 (B type), aMTD-fused CRA recombinant protein, 10 μM FITC-labeled, 1 hour, 37° C., RAW 264.7 cells) was 4.6 Fold.
Turning to “910 (VAALLPAVVVAP; Amino acid Sequence of aMTD910) [compound 910]”, the “Relative Ratio (Fold) A” value in data set [1] (setting [5]) was determined as 149.5 Fold. Besides, in data set [1] (setting [6]), the “Relative Ratio (Fold) B” value turned out to be 99.4 Fold. Also, in data set [1] (setting [7]), the “Relative Ratio (Fold) C” value was 50.2 Fold.
Consider “911 (VALALPAVVVAP; Amino acid Sequence of aMTD911) [compound 911]”, for which the “Relative Ratio (Fold) A” value in data set [1] (setting [5]) and in data set [1] (setting [8]) was 84.8 Fold in each case. Also, the “Relative Ratio (Fold) B” value in data set [1] (setting [6]) and in data set [1] (relative cell-permeability of aMTD vs reference CPP B: MTM12) was 56.8 Fold each time. Besides, the “Relative Ratio (Fold) C” value in data set [1] (setting [7]) and in data set [1] (relative cell-permeability of aMTD vs reference CPP C: MTD85) was 28.7 Fold in each case.
With “921 (IWWFVVLPLVVP; Amino acid Sequence of rPeptide ID 921) [compound 921]”, the “Relative Ratio to aMTD AVE” value in data set [1] (setting [9]) is given as 0.14. In addition, in data set [1] (relative cell-permeability of rPeptide vs reference A (not defined)), the “Relative Ratio (Fold) A” value turned out to be 2.8 Fold. In addition, the “Relative Ratio (Fold) B” value in data set [1] (relative cell-permeability of rPeptide vs reference CPP B: MTM12) was determined as 1.9 Fold. The “Relative Ratio (Fold) C” value in data set [1] (relative cell-permeability of rPeptide vs reference CPP C: MTD85) was 0.9 Fold.
As to “934 (LILAPAAVVAAA; Amino acid Sequence of rPeptide ID 934) [compound 934]”, the “Relative Ratio to aMTD AVE” value in data set [1] (setting [9]) was 0.28.
Still for that read-out and setting: with “938 (VPVLLPVVVPVP; Amino acid Sequence of rPeptide ID 938) [compound 938]” the figure was 0.28.
Consider “964 (ALLVIAPAIAVP; Amino acid Sequence of aMTD864) [compound 964]”, for which the “Relative Ratio (Fold) A” value in data set [1] (setting [5]) is 8.2 Fold. For the same molecule, in data set [1] (setting [6]), the “Relative Ratio (Fold) B” value came to 4.8 Fold. Moreover, in data set [1] (setting [7]), the “Relative Ratio (Fold) C” value is recorded as 2.8 Fold.

B1: M165S3B: his-tag-removed aMTD165-SOCS3-SDB recombinant protein (protein)
chain: ALAVPVALAIVPVTHSKFPAAGMSRPLDTSLRLKTFSSKSEYQLVVNAVRKLQESGFYWSAVTGGEANLLLSAEPAGTFLIRDSSDQRHFFTLSVKTQSGTKNLRIQCEGGSFSLQSDPRSTQPVPRFDCVLKLVHHYMPPPGAPSFPSPPTEPSSEVPEQPSAQPLPGSPPRRAYYIYSGGEKIPLVLSRPLSSNVATLQHLCRKTVNGHLDSYEKVTQLPGPIREFLDQYDAPLMAEQSDKDVKYYTLEEIQKHKDSKSTWLILHHKVYDLTKFLEEHPGGEEVLGEQAGGDATENFEDVGHSTDARELSKTYIIGELHPDDRSKIAKPSETL
modifications: Amino acid sequence of E.coli codon usage optimized M165S3B′
notes: his-tag-removed aMTD165-SOCS3-SDB recombinant protein
As for B1, the “cell-permeability (protein uptake)” value in data set [2] was “high cell permeability”. In data set [3], the solubility/yield entry is “high solubility/yield”. In addition, in data set [4], the “induction of apoptosis (Annexin V)” value is given as “showed high anticancer efficacy; also recorded: efficacy equivalent to or higher than HM165S3B”.
